The source of these data is patent publication US20220145396A1, “METHOD OF IDENTIFYING PATIENTS WITH BORTEZOMIB RESISTANT MULTIPLE MYELOMA AND OTHER BLOOD DISEASES” (Max-Planck-Gesellschaft zur Förderung der Wissenschaften …, priority 2019, published 2022).

Entries after “also recorded” stand apart in the source; their conditions may differ.

In test [1] the test system is bortezomib resistant PSMB5 mutant cell lines. Description: XTT cell viability assay of bortezomib resistant PSMB5 mutant clones (AN3-12 mouse haploid embryonic stem cells) treated with proteasome inhibitors. In kind it is cell-based. The protocol:
AN3-12 mouse haploid embryonic stem cells were cultured as previously described (Elling et al., 2011). In brief, the cells were grown in DMEM high glucose (Sigma-Aldrich, St. Louis, Mo.) supplemented with 15% fetal bovine serum, penicillin/streptomycin, glutamine, non-essential amino acids, sodium pyruvate (all Thermo Fisher Scientific, Waltham, Mass.), β-mercaptoethanol, and Leukemia-Inhibitor Factor (LIF) (both Merck Millipore, Darmstadt, Germany) on non-coated tissue culture plates.
Chemical mutagenesis was performed as previously described (Horn et al., 2011). In brief, AN3-12 cells were transferred to 15 ml tubes, incubated with 0.1 mg/ml ENU for two hours at room temperature, washed five times with LIF-free medium, and plated on culture dishes. The cells were selected with 25 nM Bortezomib (Selleckchem, Houston, Tex.) for three weeks, starting 24 h after mutagenesis. Resistant clones were transferred to 24-well plates and the Psmb5 locus was analyzed. DNA was extracted (DNA extraction solution, Epicentre, Biotechnologies, Madison, Wis.) and exon 2 or exon 3 of the Psmb5 genewere specifically amplified by PCR using the primers msPSMB5exon2_fwd ([…]), msPSMB5exon2_rev ([…]), msPSMB5exon3_fwd ([…]), and msPSMB5exon3_rev ([…]). The used PSMB5 transcript is PSMB5-202, transcript identification ID ENST00000361611.11, coding sequence: CCDS9584, as available on Ensemble Biomart database. Sanger sequencing was performed at Eurofins Genomics GmbH (Ebersberg, Germany).
(§1) Cell viability was analyzed using the XTT cell proliferation Kit II (Roche Diagnostics, Basel, Switzerland) according to the manufacturer's instructions. Drug treatment was started 24 h after cell seeding. The absorbance was measured after 72 h of treatment and normalized to the respective untreated control cells.

For test [2], the system named is KMS-18 T21A mutant cell line. The test can be described thus: XTT viability assay of KMS-18 multiple myeloma cell line with spontaneous PSMB5 T21A substitution. The settings on record: KMS-18 T21A mutant cells, heterozygous. In kind it is cell-based, human. The protocol:
as §1
KMS-18 and KMS-27 cells, having a wild type PSMB5 locus, were subjected to a 4-week selection on bortezomib without the use of mutagens.
Resistance of these two mutant cell lines to the different proteasome inhibitors was investigated using the XTT viability assay.

The mark [3] stands for this setting: T21 substitutions, 15 nM carfilzomib or 75 nM oprozomib.

Turning to `CC(C)C[C@H](NC(=O)[C@H](Cc1ccccc1)NC(=O)c1cnccn1)B(O)O` [bortezomib, [(1R)-3-Methyl-1-[[(2S)-1-oxo-3-phenyl-2-[(pyrazinylcarbonyl)amino]propyl]amino]butyl]boronic acid], the “resistance of mutant cell lines compared to the wildtype control (viability assay)” value in test [1] (10 nM bortezomib, 72 h, identified Psmb5 mutant clones vs WT) is “up to 2 fold”. Besides, in test [1] (T21A substitution), the “response in cell viability assay” value is recorded as “resistance”. In addition, the “response in XTT viability assay” value in test [2] is on record as “resistance”.
In the case of `CC(C)C[C@H](NC(=O)[C@H](CCc1ccccc1)NC(=O)CN1CCOCC1)C(=O)N[C@@H](Cc1ccccc1)C(=O)N[C@@H](CC(C)C)C(=O)[C@@]1(C)CO1` [carfilzomib], in test [1] (15 nM carfilzomib, the different mutants), the “resistance in cell viability assay” value is recorded as “varying degrees of resistance; also recorded: highly variable”. The “response in cell viability assay” value in test [1] (T21A substitution) is “hypersensitive”; in test [1] (setting [3]) it was “hypersensitivity”. The “response in cell viability assay (clustering, FIG. 12)” value in test [1] (substitutions in positions C63, S130, or Y169) is reported as “partially maintained response”. Further, the “response in XTT viability assay” value in test [2] is listed as “sensitive”.
Turning to `CC(C)C[C@H](NC(=O)CNC(=O)c1cc(Cl)ccc1Cl)B(O)O` [ixazomib], the “resistance in cell viability assay” value in test [1] (50 nM ixazomib, all bortezomib resistant PSMB5 mutant cell lines) is “resistant”. In addition, the “response in cell viability assay” value in test [1] (T21A substitution) is listed as “resistance”. Further, the “response in XTT viability assay” value in test [2] is on record as “resistance”.
Turning to `COC[C@H](NC(=O)c1cnc(C)s1)C(=O)N[C@@H](COC)C(=O)N[C@@H](Cc1ccccc1)C(=O)[C@@]1(C)CO1` [oprozomib], the “resistance in cell viability assay” value in test [1] (75 nM oprozomib, the different mutants) was “varying degrees of resistance; also recorded: highly variable”. Moreover, the “response in cell viability assay” value is reported as “hypersensitive” in test [1] (T21A substitution) and “hypersensitivity” in test [1] (setting [3]). The “response in XTT viability assay” value in test [2] is “sensitive”.
